Test results as given in patent publication US9458137B2, “Substituted indol-5-ol derivatives and their therapeutical applications” (NantBioScience, Inc., priority 2012, dated 2016).

Experiments:
[1] = system: human MV411 human acute myelogenous leukemia (AML) xenograft; assay type: in vivo, SCID mice; conditions: 25, 50 mg/kg, 5-day on, two-day off for two cycles; female SCID mice
Method: The objective of the first study was to evaluate antitumor activities of the novel multiple-kinase inhibitor NTW-3475 against human MV411 human acute myelogenous leukemia (AML) xenograft model in female SCID mice.
Four or six animals were randomly assigned to each study group. Each animal was injected subcutaneously in the left and right flank area with 0.1 ml of 1.0×10^8 MV411 cells per mL
Each test or control animal was placed on a 5-day on, two-day off for two cycles of vehicle negative control or 25, 50 mg/kg of NTW-3475. Tumor growth was measured with a digital hand held caliper twice weekly (once tumor emerges) prior to the first dosing and then two to three times weekly until euthanized. Animals were weighed prior to tumor cell injection, prior to dosing, two to three times weekly with tumor growth measurements, and prior to euthanasia.
FIGS. 27-32 depict the results of various concentrations of NTW-3456 on tumor growth in scid mouse/xenograft model of AML using MV411 cells. […] This invention is characterized as it is here was a correlation between the inhibition of the pFLT3 kinase and growth control.

CK1δ(h) = CK1δ(h) (Homo sapiens, UniProt P48730); assay: Kinase panel activity; assay type: biochemical; conditions: 0.1 μM, ATP Km
Method: (§1) The effect of NTW-3475 on kinase activity was tested for a wide range of kinases and is shown in Table 2: Summary Sheet, Activity % ATP Concentration: Km

IR(h) = IR(h) (Homo sapiens, UniProt P06213); assay: Kinase panel activity; assay type: biochemical; conditions: 0.1 μM, ATP Km
Method: as §1

PEK(h) = PEK(h) (Homo sapiens, UniProt Q9NZJ5); assay: Kinase panel activity; assay type: biochemical; conditions: 0.1 μM, ATP Km
Method: as §1

FGFR2(h) = FGFR2(h) (Homo sapiens, UniProt P21802); assay: Kinase panel activity; assay type: biochemical; conditions: 0.1 μM, ATP Km
Method: as §1

PKCζ(h) = PKCζ(h) (Homo sapiens, UniProt Q05513); assay: Kinase panel activity; assay type: biochemical; conditions: 0.1 μM, ATP Km
Method: as §1

[2] = system: TT human Thyroid carcinoma xenograft; assay: TT thyroid carcinoma xenograft; assay type: in vivo, nude mouse; conditions: TT xenograft
Excerpt: This example assesses NTW-3475's anti-tumor activity using a scid mouse xenograft models for leukemias and nude mouse xenograft models of endometrial, pancreatic and thyroid carcinomas. NTW-3475 combination therapy was also studied in murine xenografts.
FIGS. 36-38 depict the results of various concentrations of NTW-3456 on a nude mouse/xenograft the TT cell model of thyroid carcinoma.

[3] = system: human MIAPaCa-2 pancreatic carcinoma xenograft; assay: MIAPaCa-2 pancreatic carcinoma xenograft; assay type: in vivo, athymic nude-Faxn1 mice
Method: The objective of the third study was to evaluate antitumor activities of novel multiple-kinase inhibitor NTW-3475 in human MIAPaCa-2 pancreatic carcinoma xenograft in athymic nude-Faxn1 mice.
Four animals were randomly assigned to study groups. Each animal was weighed, and then injected subcutaneously in the left and right flank area with 0.1 ml of 5.0×10^7 MIAPaCa-2 cells per mL.
Each test or control animal was on a 5-day on, two-day off for two cycles treatment schedule with negative control vehicle, positive control Abraxane at 20 mg/kg or 25, 50 mg/kg of NTW-3475. Tumor growth was measured with a digital hand held caliper twice weekly (once tumor emerges) prior to the first dosing and then two to three times weekly until euthanized.
FIGS. 42-44 depict the results of various concentrations of NTW-3456 on a nude mouse/xenograft the MIAPaCa-2 model of pancreatic carcinoma.
FIGS. 45 and 46 depict the results of various concentrations of NTW-3456, with or without Abraxane on a MiaPaCa-2 model of pancreatic carcinoma.

MLCK(h) = assay: Kinase panel activity; assay type: biochemical, human; conditions: 0.1 μM, ATP Km
Method: as §1

c-RAF(h) = assay: Kinase panel activity; assay type: biochemical, human; conditions: 0.1 μM, ATP Km
Method: as §1

[4] = system: human tumor cell lines of the cancer screening panel; assay: in vitro antiproliferation, NCI 60 cancer cell line panel (SRB); assay type: cell-based; conditions: 48 h
Method: NTW-3475 was also tested for its antiproliferative potential using cell lines from the NCI 60 cancer cell line panel.
The human tumor cell lines of the cancer screening panel are grown in RPMI 1640 medium containing 5% fetal bovine serum and 2 mM L-glutamine. For a typical screening experiment, cells are inoculated into 96 well microtiter plates in 100 μL at plating densities ranging from 5,000 to 40,000 cells/well depending on the doubling time of individual cell lines. After cell inoculation, the microtiter plates are incubated at 37° C., 5% CO2, 95% air and 100% relative humidity for 24 h prior to addition of experimental drugs. […]
Following drug addition, the plates are incubated for an additional 48 h at 37° C., 5% CO2, 95% air, and 100% relative humidity. […] Bound stain is subsequently solubilized with 10 mM trizma base, and the absorbance is read on an automated plate reader at a wavelength of 515 nm. […] Using the seven absorbance measurements [time zero, (Tz), control growth, (C), and test growth in the presence of drug at the five concentration levels (Ti)], the percentage growth is calculated at each of the drug concentrations levels. Percentage growth inhibition is calculated as: [(Ti-Tz)/(C-Tz)]×100 for concentrations for which Ti>/=Tz [(Ti-Tz)/Tz]×100 for concentrations for which Ti<Tz.
Three dose response parameters are calculated for each experimental agent. […]

FGFR2(h), sequence (P21802 22-821): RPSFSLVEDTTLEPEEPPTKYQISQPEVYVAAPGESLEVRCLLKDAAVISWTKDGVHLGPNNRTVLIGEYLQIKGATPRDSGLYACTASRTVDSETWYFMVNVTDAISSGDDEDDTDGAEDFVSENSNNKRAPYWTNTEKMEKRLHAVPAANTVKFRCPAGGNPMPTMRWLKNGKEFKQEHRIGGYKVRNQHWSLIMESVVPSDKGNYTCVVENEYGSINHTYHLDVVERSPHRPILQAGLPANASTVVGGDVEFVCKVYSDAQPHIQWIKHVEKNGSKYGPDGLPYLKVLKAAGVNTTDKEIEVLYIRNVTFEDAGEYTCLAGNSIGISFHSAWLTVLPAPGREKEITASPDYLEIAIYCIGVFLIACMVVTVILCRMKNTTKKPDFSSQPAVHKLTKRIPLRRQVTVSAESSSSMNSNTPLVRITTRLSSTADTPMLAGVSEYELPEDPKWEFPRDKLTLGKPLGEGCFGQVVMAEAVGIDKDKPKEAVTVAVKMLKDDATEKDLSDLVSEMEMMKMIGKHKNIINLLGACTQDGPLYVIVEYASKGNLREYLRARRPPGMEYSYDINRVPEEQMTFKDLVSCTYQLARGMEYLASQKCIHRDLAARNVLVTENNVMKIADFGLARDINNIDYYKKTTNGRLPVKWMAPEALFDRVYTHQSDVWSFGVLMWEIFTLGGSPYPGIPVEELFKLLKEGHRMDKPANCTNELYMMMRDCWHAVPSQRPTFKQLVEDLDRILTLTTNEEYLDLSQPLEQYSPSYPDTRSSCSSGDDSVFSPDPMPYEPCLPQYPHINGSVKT
IR(h), sequence (P06213 28-1382): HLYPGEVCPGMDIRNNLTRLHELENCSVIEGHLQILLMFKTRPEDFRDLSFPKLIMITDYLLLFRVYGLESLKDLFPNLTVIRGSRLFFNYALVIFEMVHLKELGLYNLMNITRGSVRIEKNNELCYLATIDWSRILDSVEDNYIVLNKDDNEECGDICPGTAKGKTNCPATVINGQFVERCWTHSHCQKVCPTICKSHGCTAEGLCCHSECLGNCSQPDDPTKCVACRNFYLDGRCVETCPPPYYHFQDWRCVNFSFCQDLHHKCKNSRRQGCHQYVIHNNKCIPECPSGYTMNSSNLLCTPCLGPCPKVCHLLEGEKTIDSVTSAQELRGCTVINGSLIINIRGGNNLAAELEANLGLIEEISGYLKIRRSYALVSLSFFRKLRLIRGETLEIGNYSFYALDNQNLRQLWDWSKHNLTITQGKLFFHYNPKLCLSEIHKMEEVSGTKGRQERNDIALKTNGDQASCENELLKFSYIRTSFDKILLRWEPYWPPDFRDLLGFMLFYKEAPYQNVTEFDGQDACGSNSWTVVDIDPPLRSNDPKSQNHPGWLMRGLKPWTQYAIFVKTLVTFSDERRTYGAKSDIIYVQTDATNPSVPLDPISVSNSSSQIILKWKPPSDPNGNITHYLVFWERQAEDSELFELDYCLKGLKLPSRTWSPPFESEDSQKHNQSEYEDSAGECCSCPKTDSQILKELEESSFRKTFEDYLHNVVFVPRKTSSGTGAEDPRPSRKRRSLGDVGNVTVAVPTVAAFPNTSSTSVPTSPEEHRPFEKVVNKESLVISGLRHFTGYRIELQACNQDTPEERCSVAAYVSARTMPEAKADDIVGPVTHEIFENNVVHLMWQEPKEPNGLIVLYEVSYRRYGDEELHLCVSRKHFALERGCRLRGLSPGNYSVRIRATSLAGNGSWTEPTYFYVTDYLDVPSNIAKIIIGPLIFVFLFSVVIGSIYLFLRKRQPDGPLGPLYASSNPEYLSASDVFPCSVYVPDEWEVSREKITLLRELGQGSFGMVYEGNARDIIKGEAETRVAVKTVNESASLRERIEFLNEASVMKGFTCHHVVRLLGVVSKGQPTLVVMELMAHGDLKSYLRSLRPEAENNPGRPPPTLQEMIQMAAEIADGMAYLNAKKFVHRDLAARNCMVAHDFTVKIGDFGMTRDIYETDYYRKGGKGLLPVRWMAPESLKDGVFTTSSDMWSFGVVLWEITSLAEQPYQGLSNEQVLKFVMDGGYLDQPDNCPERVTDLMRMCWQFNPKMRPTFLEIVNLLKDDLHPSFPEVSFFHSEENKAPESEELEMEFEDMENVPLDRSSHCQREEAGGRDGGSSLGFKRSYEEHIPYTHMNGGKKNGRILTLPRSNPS
CK1δ(h), sequence (P48730 whole entry): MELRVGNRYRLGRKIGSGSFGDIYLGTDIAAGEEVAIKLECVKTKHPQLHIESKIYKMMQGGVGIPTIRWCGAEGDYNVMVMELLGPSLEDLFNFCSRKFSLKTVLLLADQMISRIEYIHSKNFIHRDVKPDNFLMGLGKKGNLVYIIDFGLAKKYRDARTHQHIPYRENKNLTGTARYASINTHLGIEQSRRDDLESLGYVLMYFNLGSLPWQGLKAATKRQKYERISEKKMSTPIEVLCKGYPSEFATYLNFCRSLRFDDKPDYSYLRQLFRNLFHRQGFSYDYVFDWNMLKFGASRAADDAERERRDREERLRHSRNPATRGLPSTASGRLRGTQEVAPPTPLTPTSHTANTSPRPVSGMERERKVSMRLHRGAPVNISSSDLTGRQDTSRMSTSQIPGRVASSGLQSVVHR
PKCζ(h), sequence (Q05513 whole entry): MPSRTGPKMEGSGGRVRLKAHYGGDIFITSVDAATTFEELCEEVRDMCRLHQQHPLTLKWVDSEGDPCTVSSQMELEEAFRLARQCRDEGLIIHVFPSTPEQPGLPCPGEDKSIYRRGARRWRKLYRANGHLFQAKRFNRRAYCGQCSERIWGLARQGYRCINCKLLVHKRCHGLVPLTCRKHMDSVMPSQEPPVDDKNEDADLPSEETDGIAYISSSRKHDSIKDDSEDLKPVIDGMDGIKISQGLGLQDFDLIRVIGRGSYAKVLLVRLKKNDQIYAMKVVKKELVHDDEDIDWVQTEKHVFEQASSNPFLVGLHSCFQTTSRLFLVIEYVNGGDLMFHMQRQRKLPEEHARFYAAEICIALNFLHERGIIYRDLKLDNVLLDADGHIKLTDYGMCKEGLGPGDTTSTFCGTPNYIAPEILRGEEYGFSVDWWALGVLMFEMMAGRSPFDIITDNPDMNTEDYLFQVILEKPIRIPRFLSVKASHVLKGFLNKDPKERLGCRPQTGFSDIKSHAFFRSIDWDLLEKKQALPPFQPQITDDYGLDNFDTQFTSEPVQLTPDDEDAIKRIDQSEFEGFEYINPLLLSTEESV
PEK(h), sequence (Q9NZJ5 30-1116): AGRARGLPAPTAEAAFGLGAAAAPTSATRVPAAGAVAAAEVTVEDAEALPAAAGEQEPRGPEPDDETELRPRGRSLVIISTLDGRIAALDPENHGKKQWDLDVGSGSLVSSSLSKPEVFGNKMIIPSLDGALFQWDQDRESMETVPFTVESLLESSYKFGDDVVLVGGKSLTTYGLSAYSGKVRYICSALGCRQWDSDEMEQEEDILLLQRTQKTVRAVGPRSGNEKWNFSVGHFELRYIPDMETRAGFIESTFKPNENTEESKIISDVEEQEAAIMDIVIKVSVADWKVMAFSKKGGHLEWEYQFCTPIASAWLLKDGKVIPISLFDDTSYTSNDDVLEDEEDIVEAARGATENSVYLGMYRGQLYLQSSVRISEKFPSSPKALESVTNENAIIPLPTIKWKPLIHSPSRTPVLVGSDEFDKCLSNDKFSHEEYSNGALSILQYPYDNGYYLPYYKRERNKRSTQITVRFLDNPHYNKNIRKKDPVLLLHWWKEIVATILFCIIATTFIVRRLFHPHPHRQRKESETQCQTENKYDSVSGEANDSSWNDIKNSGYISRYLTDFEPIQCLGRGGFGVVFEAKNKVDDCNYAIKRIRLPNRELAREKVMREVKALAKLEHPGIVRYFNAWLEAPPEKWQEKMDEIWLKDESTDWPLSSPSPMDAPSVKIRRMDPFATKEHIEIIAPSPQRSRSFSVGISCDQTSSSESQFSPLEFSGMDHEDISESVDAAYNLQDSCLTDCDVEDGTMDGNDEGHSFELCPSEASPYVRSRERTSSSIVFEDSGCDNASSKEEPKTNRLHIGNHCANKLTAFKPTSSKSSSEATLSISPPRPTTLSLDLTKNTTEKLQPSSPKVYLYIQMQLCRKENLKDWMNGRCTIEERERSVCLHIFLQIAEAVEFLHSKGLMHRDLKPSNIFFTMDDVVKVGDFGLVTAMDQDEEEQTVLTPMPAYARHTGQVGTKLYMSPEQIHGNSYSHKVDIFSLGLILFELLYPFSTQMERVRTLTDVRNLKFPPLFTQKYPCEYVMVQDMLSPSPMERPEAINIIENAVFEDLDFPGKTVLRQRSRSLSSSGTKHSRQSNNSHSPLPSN

Activity % (CK1δ(h)): 91% | Activity % (IR(h)): 30% | Activity % (PEK(h)): 103% | Activity % (FGFR2(h)): 0% | Activity % (PKCζ(h)): 109% | Activity % (MLCK(h)): 110% | Activity % (c-RAF(h)): 94%
SMILES: Cc1cc2c(F)c(Oc3nc(Nc4cc(C5CC5)[nH]n4)cc(N4CCN(C)CC4)n3)cc(F)c2[nH]1 [NTW-3475]
anti-tumor effect against AML [1]: strong anti-tumor effect | anti-tumor effect [2]: anti-tumor effect | anti-tumor effect against pancreatic carcinoma cells ([3]; 25, 50 mg/kg, 5-day on, two-day off for two cycles): strong anti-tumor effect | anti-tumor effect of the combination ([3]; in combination with Abraxane): anti-tumor effect | antiproliferative activity [4]: strong antiproliferative activity in at least 13 of the 16 cell lines studied
